Patent US20250197368A1 (priority 2020, published 2025)

Columns and labels:
human α3β3γ2 GABAARs = assay: In vitro electrophysiological recording assay (automated patch-clamp), α3-GABAAR relative efficacy; assay type: cell-based; conditions: % efficacy normalised to diazepam; GABA EC10-20; concentration generally >= 100 times Ki
Method: The efficacy of modulators was evaluated using the automated patch-clamp platforms QPatch16 (Sophion, Copenhagen, Denmark) or SyncroPatch 384PE (Nanion, Germany).
For QPatch electrophysiology testing L(tk^−) cells stably expressing human α1β3γ2, α2β3γ2, α3β3γ2, α5β3γ2 GABAARs were used. HEK293 cells stably expressing human α1β3γ2L, α2β3γ2L, α3β3γ2L and α5β3γ2L GABAARs were used for the SyncroPatch 384PE experiments.
All experiments were carried out at room temperature (20-22° C.) using a standard whole cell procedure and physiological solutions. Gigaseals were formed upon execution of a combined suction/voltage protocol with subsequent increased suction leading to the whole-cell configuration.
The currents recorded were acquired at either 1 KHz or 2 KHz and filtered using a Bessel filter. Whole-cell currents were measured at a holding potential of-65 mV (QPatch) or −80 mV (SyncroPatch).
For QPatch experiments, the extracellular solution contained of: 145 mM NaCl, 4 mM KCl, 1 mM MgCl2, 2 mM CaCl2), 10 mM HEPES, 10 mM D-glucose (pH 7.4), and the intracellular solution consisted of: 96 mM KCl, 28 mM CsCl, 25 mM KOH, 4.3 mM CaCl2), 1.4 mM MgCl2, 10 mM EGTA, 10 mM HEPES, 3 mM MgATP (pH 7.2). The osmolarities of the extracellular and intracellular solutions were 305 and 295 mOsm respectively.
For SyncroPatch experiments, the extracellular recording solution contained: 140 mM NaCl, 4 mM KCl, 2 mM CaCl2), 1 mM MgCl2, 10 mM HEPES, 5 mM glucose (pH 7.4 with NaOH and osmolarity of c. 300-310 mOsm). The intracellular recording solution consisted of: 90 mM KCl, 50 mM KF, 1.5 mM MgCl2, 11.1 mM EGTA and 10 mM HEPES (pH 7.2 with KOH and osmolarity of c. 300 mOsm). 2 mM of NaATP was added to the intracellular solution on the day of testing.
The effects of modulators were evaluated in the presence of a submaximal GABA concentration, giving typically less than 30% activation of the response elicited by a saturating GABA concentration. To check and ensure baseline current stability before compound addition, two to five consecutive applications of GABA EC10-20 separated by wash steps were performed before compound addition. The test compound was applied 1 min at least prior to co-application with GABA EC10-20. Following a further wash step, a saturating concentration of GABA was applied at the end of each recording, allowing the accurate evaluation for each cell of the percentage baseline activation elicited by the submaximal GABA applied.
The compounds were first dissolved in DMSO as a 10 mM stock and then further diluted to the testing concentrations so that the final DMSO concentration in the extracellular recording solution was 0.1% (QPatch) or 0.2% (SyncroPatch).
The % efficacy of modulators was determined from the GABA elicited currents recorded in the presence and absence of the test compound, using the formula:
[((compound peak current−leak)−(GABA peak current-leak))/(GABA peak current−leak)]*100,
where ‘leak’ is the leak baseline current at the holding potential, ‘compound peak current’ is the current elicited by co-application of compound and GABA, and ‘GABA peak current’ is the current elicited by GABA alone at the last GABA application before compound addition. The results were presented as ‘relative efficacy’ for each compound generally at a concentration equal or higher than 100 times their determined Ki. The relative efficacy of a compound was calculated by normalising its % efficacy to the corresponding % efficacy of diazepam that was separately determined.

Male Sprague Dawley rats = assay: Elevated plus maze assay; assay type: in vivo; conditions: for percent time spent on open arms versus vehicle treated rats: rat; for effect in the rat elevated plus maze assay: dosed orally
From the text: The method, which detects anxiolytic activity, follows that described by Handley and Mithani (Naunyn. Schmied. Arch. Pharmacol., 327, 1-5, 1984). Rodents avoid open spaces (the open arms of an elevated plus-maze). Anxiolytics increase exploratory activity in the open arms, as indicated by increased time spent on the open arms and/or by increased % open-arm entries.
The maze was made from black matte acrylic and consisted of 4 arms of equal length and width (50×10 cm) arranged in the form of a plus sign (+). Two opposite arms were enclosed by 40 cm high walls (closed arms). The two other arms have no walls (open arms). The maze was raised approximately 65 cm above the floor.
Male Sprague Dawley rats (c. 200-300 g) were used for the study. 13 to 15 rats were studied per group.
Compounds were evaluated at three or four doses, administered p.o. 30 minutes to 2 hours before the test, at 5 mL per kg of body weight and its effects compared with vehicle-treated group.-Chlordiazepoxide hydrochloride (5 mg/kg, prepared in 0.9% saline), administered i.p. 30 minutes before the test, was used as reference substance to compare with the vehicle treated group.
The day before the test, rats were weighed. The compounds were prepared at least 24 hours before the test day. 30 minutes after dosing, each rat was placed in the centre of the apparatus and its behaviour was recorded for 5 minutes. The animals' behaviour on the maze was tracked using a camera mounted above the maze and the image analysed using EthoVision XT 13 video tracking software.
The percentage of time spent in the open arms was calculated by dividing the time spent on open arms to the total time in the maze.
Data were analysed by comparing treated groups with vehicle control group using one-way ANOVA followed by post-hoc Dunnett's tests.

SMILES | α3-GABAAR Relative Efficacy (vs. Diazepam) (human α3β3γ2 GABAARs) | percent time spent on open arms versus vehicle treated rats (Male Sprague Dawley rats; 1, 3, and 10 mg/kg p.o.) | effect in the rat elevated plus maze assay (Male Sprague Dawley rats) | percent time spent on open arms versus vehicle treated rats (Male Sprague Dawley rats; 1 and 3 mg/kg p.o.) | percent time spent on open arms versus vehicle treated rats (Male Sprague Dawley rats; 0.3, 1 and 3 mg/kg p.o.)
CCCNC(=O)c1c(N)c2cccc(-c3cnccc3OC)c2[nH]c1=O [Example 17, 4-Amino-8-(4-methoxy-3-pyridyl)-2-oxo-N-propyl-1H-quinoline-3-carboxamide] | 0.42 | significantly higher | anxiolytic-like effects | – | –
CCCNC(=O)c1c(N)c2cccc(-c3cnc(C)cc3OC)c2[nH]c1=O [Example 18, 4-Amino-8-(4-methoxy-6-methyl-3-pyridyl)-2-oxo-N-propyl-1H-quinoline-3-carboxamide] | 0.21 | – | anxiolytic-like effects | significantly higher | –
CCCNC(=O)c1c(N)c2cccc(-c3nc(C)ncc3F)c2[nH]c1=O [Example 40, 4-Amino-8-(5-fluoro-2-methyl-pyrimidin-4-yl)-2-oxo-N-propyl-1H-quinoline-3-carboxamide] | 0.31 | – | anxiolytic-like effects | – | significantly higher
